Experimental findings from patent publication US20260274832A1, “COMPOUNDS AND THEIR USE IN TREATING CANCER” (ASTRAZENECA AB, priority 2023, published 2026) are described below.

Assay [1] deals with T1, AR (L702H) in LNCaP cells (Homo sapiens, UniProt P10275, L702H/T878A).
T1 construct: engineered to introduce the mutation L702H into the AR gene using CRISPR/Cas9; endogenous in cells; host or cells: LNCaP cells edited by CRISPR/Cas9 at the AR gene
Put plainly: LNCaP Androgen Receptor L702H Imaging Assay (LNCaP cells engineered by CRISPR/Cas9). The format is cell-based. The settings on record: LNCaP cells with AR L702H mutation, 24 h incubation; for DC50: concentration giving 50% of maximum degradation of AR (L702H) per curve fit; for LNCaP AR (L702H) Degradation Dmax / Dmax: maximum degradation observed, normalized as % of positive control; for Dmax: LNCaP. The method in brief:
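AR (L702H) degradation, expressed as DC50 and Dmax from curve fits normalized to a positive degrader control, was measured by high-content imaging of anti-AR immunofluorescence. The engineered LNCaP line was dosed over 12 concentrations for 24 h, 0.3% DMSO final, before PFA fixation.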

Assay [2] has as its target T2, AR (AR-full length) in LNCaP cells (Homo sapiens, UniProt P10275, T878A).
T2 construct: the prostate cancer cell line LNCaP (expressing AR-full length); endogenous in cells; host or cells: LNCaP
The assay can be described thus: LNCaP Androgen Receptor Imaging Assay (immunofluorescence of endogenous nuclear AR). The format is cell-based. Conditions: 24 h incubation; for DC50: concentration giving 50% of maximum degradation of AR per curve fit, single experiment or average of two or more; for LNCaP AR Degradation Dmax / Dmax: maximum degradation observed, normalized as % of positive control (prior art AR PROTAC at 3 μM); for Dmax: LNCaP. The method in brief:
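Endogenous nuclear AR level was imaged by immunofluorescence after 24 h compound exposure (12-point dose response, 0.3% DMSO, 37° C./5% CO2) in LNCaP cells. Data were expressed as % of a 3 μM prior-art AR PROTAC control and fitted (bell fit where a hook appeared) to give DC50 and maximum degradation Dmax.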

In general, DC50 refers to the concentration at which degradation of the target reaches its halfway point. Lower therefore signals degradation at low concentration. In general, Dmax refers to the greatest extent of degradation seen.

T1 sequence (P10275 whole entry L702H/T878A): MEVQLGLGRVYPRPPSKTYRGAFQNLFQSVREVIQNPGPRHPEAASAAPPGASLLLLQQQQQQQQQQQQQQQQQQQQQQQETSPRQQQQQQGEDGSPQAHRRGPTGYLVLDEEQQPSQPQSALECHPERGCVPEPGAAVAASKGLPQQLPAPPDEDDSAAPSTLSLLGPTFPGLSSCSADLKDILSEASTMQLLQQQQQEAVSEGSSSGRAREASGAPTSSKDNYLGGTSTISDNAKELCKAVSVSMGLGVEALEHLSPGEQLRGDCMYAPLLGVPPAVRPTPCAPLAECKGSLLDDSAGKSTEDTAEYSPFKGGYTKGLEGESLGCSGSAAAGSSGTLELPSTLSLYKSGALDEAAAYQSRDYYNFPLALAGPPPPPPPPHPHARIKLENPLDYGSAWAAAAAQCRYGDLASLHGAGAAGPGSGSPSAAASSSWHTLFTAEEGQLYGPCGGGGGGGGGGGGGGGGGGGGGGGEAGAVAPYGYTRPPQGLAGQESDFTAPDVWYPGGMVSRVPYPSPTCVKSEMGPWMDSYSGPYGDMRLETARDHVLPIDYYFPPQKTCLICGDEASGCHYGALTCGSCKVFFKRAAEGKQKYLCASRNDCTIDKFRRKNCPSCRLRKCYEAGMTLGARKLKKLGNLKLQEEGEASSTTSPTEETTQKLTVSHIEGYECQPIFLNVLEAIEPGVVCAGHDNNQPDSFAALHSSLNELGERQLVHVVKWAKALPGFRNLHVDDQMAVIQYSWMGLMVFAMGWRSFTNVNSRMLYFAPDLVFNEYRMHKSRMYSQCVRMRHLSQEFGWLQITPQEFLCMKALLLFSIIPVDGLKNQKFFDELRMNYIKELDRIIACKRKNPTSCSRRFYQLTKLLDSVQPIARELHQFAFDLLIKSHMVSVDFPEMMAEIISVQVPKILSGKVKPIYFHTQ
T1 sequence (Q96SW2 whole entry partner): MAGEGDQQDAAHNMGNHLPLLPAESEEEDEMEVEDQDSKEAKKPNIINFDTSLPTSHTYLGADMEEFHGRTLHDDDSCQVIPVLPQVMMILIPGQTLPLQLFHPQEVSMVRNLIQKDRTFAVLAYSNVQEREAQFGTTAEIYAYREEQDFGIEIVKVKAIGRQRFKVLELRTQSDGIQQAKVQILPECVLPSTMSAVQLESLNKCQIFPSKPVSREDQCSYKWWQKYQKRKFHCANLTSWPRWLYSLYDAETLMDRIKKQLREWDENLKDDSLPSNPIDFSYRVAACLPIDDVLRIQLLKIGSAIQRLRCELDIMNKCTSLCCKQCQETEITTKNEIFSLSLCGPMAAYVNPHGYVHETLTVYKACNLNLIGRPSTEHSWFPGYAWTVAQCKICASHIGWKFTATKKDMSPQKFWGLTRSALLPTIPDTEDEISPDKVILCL
T2 sequence (P10275 whole entry T878A): as the sequence (P10275 whole entry L702H/T878A) above, with H702L counted along it
T2 sequence (Q96SW2 whole entry partner): as the sequence (Q96SW2 whole entry partner) above

Turning to `COc1cc(N2CCN(CC3CCN(c4ccc(C5CCN(c6ccc(Cl)c7c(C#N)c[nH]c67)CC5)cc4)CC3)CC2)cc2c1C(=O)N(C1CCC(=O)NC1=O)C2` (single isomer, unassigned) [Example 17, 4-Chloro-7-[4-(4-{4-[(4-{2-[(3S*)-2,6-dioxopiperidin-3-yl]-7-methoxy-1-oxo-2,3-dihydro-1H-isoindol-5-yl}piperazin-1-yl)methyl]piperidin-1-yl}phenyl)piperidin-1-yl]-1H-indole-3-carbonitrile], in assay [1], the DC50 was determined as 4 nM and the “LNCaP AR (L702H) Degradation Dmax” value came out at 102%. Moreover, in assay [2], the DC50 turned out to be 3 nM and the “LNCaP AR Degradation Dmax” value came out at 100%.
Regarding `Cn1c(C2CCN(CC3CCN(c4ccc(C(=O)NC5CCN(c6ccc(Cl)c7c(C#N)c[nH]c67)CC5)c(F)c4)CC3)CC2)cc2ccc(N3CCC(=O)NC3=O)cc21` [Example 158, N-[1-(4-Chloro-3-cyano-1H-indol-7-yl)piperidin-4-yl]-4-[4-({4-[6-(2,4-dioxo-1,3-diazinan-1-yl)-1-methyl-1H-indol-2-yl]piperidin-1-yl}methyl)piperidin-1-yl]-2-fluorobenzamide], the DC50 is 7 nM in assay [1] and 1 nM in assay [2]. For the same molecule, the results for the Dmax in assay [1] and in assay [2] were 107% and 104%, respectively.
Consider `N#Cc1c[nH]c2c(N3CCC(c4ccc(N5CCC(CN6CCN(c7ccc8c(c7)CN(C7CCC(=O)NC7=O)C8=O)CC6)CC5)cc4)CC3)ccc(Cl)c12` (single isomer, unassigned) [Example 19, 4-Chloro-7-[4-(4-{4-[(4-{2-[(3S*)-2,6-dioxopiperidin-3-yl]-1-oxo-2,3-dihydro-1H-isoindol-5-yl}piperazin-1-yl)methyl]piperidin-1-yl}phenyl)piperidin-1-yl]-1H-indole-3-carbonitrile], for which, in assay [1], the DC50 turned out to be 5 nM and the “LNCaP AR (L702H) Degradation Dmax” value is 102%. In assay [2], the DC50 was 4 nM and the “LNCaP AR Degradation Dmax” value is given as 102%.
For `N#Cc1c[nH]c2c(N3CCC(c4ccc(N5CCC(CN6CCC(n7ccc8cc(N9CCC(=O)NC9=O)ccc87)CC6)CC5)cc4)CC3)ccc(F)c12` [Example 89, 7-(4-{4-[4-({4-[5-(2,4-Dioxo-1,3-diazinan-1-yl)-1H-indol-1-yl]piperidin-1-yl}methyl)piperidin-1-yl]phenyl}piperidin-1-yl)-4-fluoro-1H-indole-3-carbonitrile], in assay [1], the DC50 is 56 nM and the Dmax was 97%. In assay [2], the DC50 turned out to be 421 nM and the Dmax was 70%.
With `Cn1c(C2CCN(CC3CCN(c4ccc(C5CCN(c6ccc(Cl)c7c(C#N)c[nH]c67)CC5)cc4)CC3)CC2)cc2ccc(N3CCC(=O)NC3=O)cc21` [Example 84, 4-Chloro-7-(4-{4-[4-({4-[6-(2,4-dioxo-1,3-diazinan-1-yl)-1-methyl-1H-indol-2-yl]piperidin-1-yl}methyl)piperidin-1-yl]phenyl}piperidin-1-yl)-1H-indole-3-carbonitrile], the DC50 in assay [1] worked out at 12 nM; in assay [2], 22 nM. For the same molecule, the Dmax was 103% in assay [1] and 99% in assay [2].
Regarding `N#Cc1c[nH]c2c(N3CCC(c4ccc(N5CCC(CN6CCN(c7ccc8c(c7)CN(C7CCC(=O)NC7=O)C8=O)CC6)CC5)cc4)CC3)ccc(Cl)c12` (stereo not drawn) [Example 1, 4-Chloro-7-(4-{4-[4-({4-[2-(2,6-dioxopiperidin-3-yl)-1-oxo-2,3-dihydro-1H-isoindol-5-yl]piperazin-1-yl}methyl)piperidin-1-yl]phenyl}piperidin-1-yl)-1H-indole-3-carbonitrile], in assay [1], the DC50 is 6 nM and the Dmax came out at 100%. Moreover, in assay [2], it took 6 nM to reach half-maximal degradation (DC50) and the Dmax was 99%.
For the molecule `Cn1c(C2CCN(CC3CCN(c4ccc([C@H]5CCCN(c6ccc(Cl)c7c(C#N)n[nH]c67)C5)cc4)CC3)CC2)cc2ccc(N3CCC(=O)NC3=O)cc21` [Example 132, 4-Chloro-7-[(3R)-3-{4-[4-({4-[6-(2,4-dioxo-1,3-diazinan-1-yl)-1-methyl-1H-indol-2-yl]piperidin-1-yl}methyl)piperidin-1-yl]phenyl}piperidin-1-yl]-1H-indazole-3-carbonitrile], in assay [1], the DC50 came to 5 nM and the Dmax came to 115%. Moreover, in assay [2], the DC50 amounted to 6 nM and the Dmax was 98%.
`COc1nc(N2CCN(CC3CCN(c4ccc(C5CCN(c6ccc(C)c7c(C#N)c[nH]c67)CC5)cc4)CC3)CC2)cc2c1C(=O)N(C1CCC(=O)NC1=O)C2` (stereo not drawn) [Example 30, 7-(4-{4-[4-({4-[2-(2,6-Dioxopiperidin-3-yl)-4-methoxy-3-oxo-2,3-dihydro-1H-pyrrolo[3,4-c]pyridin-6-yl]piperazin-1-yl}methyl)piperidin-1-yl]phenyl}piperidin-1-yl)-4-methyl-1H-indole-3-carbonitrile]: the DC50 in assay [1] amounted to 83 nM; in assay [2] it was 25 nM. Besides, the Dmax in assay [1] was found to be 83%; in assay [2], 98%.
`N#Cc1c[nH]c2c(N3CCC(NC(=O)c4ccc(N5CCC(CN6CCC(n7ccc8c(N9CCC(=O)NC9=O)cccc87)CC6)CC5)cc4)CC3)ccc(Cl)c12` [Example 173, N-[1-(4-Chloro-3-cyano-1H-indol-7-yl)piperidin-4-yl]-4-[4-({4-[4-(2,4-dioxo-1,3-diazinan-1-yl)-1H-indol-1-yl]piperidin-1-yl}methyl)piperidin-1-yl]benzamide]: the DC50 came to 2 nM in assay [1] and 1 nM in assay [2]. The Dmax is 109% in assay [1] and 102% in assay [2].
Take `Cn1c(C2CCN(CC3CCN(c4ccc(C5CCN(c6ccc(F)c7c(C#N)n[nH]c67)CC5)cc4)CC3)CC2)cc2ccc(N3CCC(=O)NC3=O)cc21` [Example 140, 7-(4-{4-[4-({4-[6-(2,4-Dioxo-1,3-diazinan-1-yl)-1-methyl-1H-indol-2-yl]piperidin-1-yl}methyl)piperidin-1-yl]phenyl}piperidin-1-yl)-4-fluoro-1H-indazole-3-carbonitrile]: in assay [1], the DC50 came out at 14 nM and the Dmax was 56%. In addition, in assay [2], the DC50 came out at 7 nM and the Dmax stood at 88%.
On to `N#Cc1n[nH]c2c(N3CCC[C@@H](c4ccc(N5CCC(CN6CCN(c7ccc8c(c7)CN(C7CCC(=O)NC7=O)C8=O)CC6)CC5)cc4)C3)ccc(Cl)c12` (stereo partly drawn) [Example 10, 4-Chloro-7-[(3S)-3-{4-[4-({4-[2-(2,6-dioxopiperidin-3-yl)-1-oxo-2,3-dihydro-1H-isoindol-5-yl]piperazin-1-yl}methyl)piperidin-1-yl]phenyl}piperidin-1-yl]-1H-indazole-3-carbonitrile], for which, in assay [1], the DC50 was 5 nM and the Dmax is 103%. In assay [2], the DC50 was 7 nM and the Dmax turned out to be 96%.
The matching figures for `N#Cc1c[nH]c2c(N3CCC(c4ccc(N5CCN(CC6CCN(c7ccc8c(c7)CN(C7CCC(=O)NC7=O)C8=O)CC6)CC5)cc4)CC3)ccc(F)c12` (stereo not drawn) [Example 22]: 23 nM, 81%, 14 nM and 80%.
